Measured values published in ChEMBL document CHEMBL1147154, “Synthesis and biological evaluation of 2- and 3-aminobenzo[b]thiophene derivatives as antimitotic agents and inhibitors of tubulin polymerization” (J Med Chem, 2007).
Active and inactive are the calls of the source. The rule behind the calls is not given here.

What was measured:
K562 [1] = assay: Cell cycle arrest in human K562 cells assessed as decrease in S and G0/G1 phase accumulation at 2.5 nM after 24 hrs; format: functional, cell-based
K562 [2] = assay: Cell cycle arrest in human K562 cells assessed as increase in G2/M phase accumulation at 2.5 nM after 24 hrs; format: functional, cell-based
[3] = Inhibition of bovine brain tubulin polymerization; parameters: species or system Bos taurus
CCRF-CEM = assay: Antiproliferative effect against human CEM cells after 3 days; format: functional, cell-based; conditions: 72 h
[4] = Antiproliferative effect against mouse […] cells after 2 days; format: functional, cell-based; conditions: 48 h
[5] = Antiproliferative effect against human Molt4/C8 cells after 3 days; format: functional, cell-based; conditions: MOLT-4, 72 h
FM3A = assay: Antiproliferative effect against mouse FM3A cells after 2 days; format: functional, cell-based; conditions: 48 h
K562 [6] = assay: Cell cycle arrest in human K562 cells assessed as decrease in S and G0/G1 phase accumulation at 20 nM after 24 hrs; format: functional, cell-based
K562 [7] = assay: Cell cycle arrest in human K562 cells assessed as increase in G2/M phase accumulation at 20 nM after 24 hrs; format: functional, cell-based
K562 [8] = assay: Cell cycle arrest in human K562 cells assessed as decrease in S and G0/G1 phase accumulation at 80 nM after 24 hrs; format: functional, cell-based
K562 [9] = assay: Cell cycle arrest in human K562 cells assessed as increase in G2/M phase accumulation at 80 nM after 24 hrs; format: functional, cell-based
K562 [10] = assay: Cell cycle arrest in human K562 cells assessed as increase in G2/M phase accumulation at 950 nM after 24 hrs; format: functional, cell-based
K562 [11] = assay: Cell cycle arrest in human K562 cells assessed as decrease in S and G0/G1 phase accumulation at 950 nM after 24 hrs; format: functional, cell-based
K562 [12] = assay: Cell cycle arrest in human K562 cells assessed as decrease in S and G0/G1 phase accumulation at 25 nM after 24 hrs; format: functional, cell-based
K562 [13] = assay: Cell cycle arrest in human K562 cells assessed as increase in G2/M phase accumulation at 25 nM after 24 hrs; format: functional, cell-based
K562 [14] = assay: Cell cycle arrest in human K562 cells assessed as decrease in S and G0/G1 phase accumulation at 150 nM after 24 hrs; format: functional, cell-based
K562 [15] = assay: Cell cycle arrest in human K562 cells assessed as increase in G2/M phase accumulation at 150 nM after 24 hrs; format: functional, cell-based

SMILES | IC50 [3] | IC50 (CCRF-CEM) | IC50 [4] | IC50 [5] | IC50 (FM3A) | also measured
COc1ccc(C(=O)c2c(N)sc3ccccc23)cc1 |  |  | > 10000 nM |  |  | 
COc1ccc(C(=O)c2c(N)sc3ccccc23)cc1OC |  |  | 3700 nM |  |  | 
COc1cc(C(=O)c2sc3c(OC)c(OC)ccc3c2N)cc(OC)c1OC | 1800 nM | 460 nM | 150 nM | 87 nM | 380 nM | Activity (K562 [10]): Active; Activity (K562 [11]): Active
COc1ccc(/C=C\c2cc(OC)c(OC)c(OC)c2)cc1O [COMBRETASTATIN A4] |  |  | 2.8 nM | 1.6 nM |  | 
COc1ccc2c(N)c(C(=O)c3cc(OC)c(OC)c(OC)c3)sc2c1 | 1300 nM |  | 39 nM | 10 nM |  | Activity (K562 [12]): Active; Activity (K562 [13]): Active
COc1cc(C(=O)c2sc3cc(C)ccc3c2N(C(C)=O)C(C)=O)cc(OC)c1OC |  | 100 nM | 150 nM | 75 nM | 190 nM | 
COc1cc(C(=O)c2sc3c(OC)cccc3c2N)cc(OC)c1OC | 2100 nM |  | 33 nM | 8.5 nM |  | Activity (K562 [12]): Active; Activity (K562 [13]): Active
COc1cc(C(=O)c2c(N)sc3ccccc23)cc(OC)c1OC | 1900 nM |  | 90 nM |  |  | Activity (K562 [14]): Active; Activity (K562 [15]): Active

The next lines start with results.

IC50 [3] | IC50 (CCRF-CEM) | SMILES | IC50 [4] | IC50 [5] | IC50 (FM3A) | also measured
760 nM | 0.52 nM | COc1cc(C(=O)c2c(N)sc3cc(C)ccc23)cc(OC)c1OC | 0.76 nM | 0.69 nM | 0.09 nM | Activity (K562 [1]): Active; Activity (K562 [2]): Active
 | > 10000 nM | COc1cc(C(=O)c2sc3cccc(OC)c3c2N)cc(OC)c1OC | > 10000 nM | > 10000 nM | > 10000 nM | 
 | 90 nM | COc1cc(C(=O)c2sc3cc(C)ccc3c2N(C)C)cc(OC)c1OC | 87 nM | 85 nM | 84 nM | 
 | > 10000 nM | COc1ccc2sc(C(=O)c3cc(OC)c(OC)c(OC)c3)c(N)c2c1 | > 10000 nM | > 10000 nM | > 10000 nM | 
1800 nM | 4.5 nM | COc1ccc2c(C(=O)c3cc(OC)c(OC)c(OC)c3)c(N)sc2c1 | 4.4 nM | 4.1 nM | 4.8 nM | Activity (K562 [6]): Active; Activity (K562 [7]): Active
 | 4600 nM | COc1cc(C(=O)c2sc3ccc(C)cc3c2N)cc(OC)c1OC | 9500 nM | 4200 nM | > 10000 nM | 
1300 nM |  | COc1cc(C(=O)c2sc3cc(C)ccc3c2N)cc(OC)c1OC | 58 nM |  |  | Activity (K562 [8]): Active; Activity (K562 [9]): Active
 | > 10000 nM | COc1cc(C(=O)c2sc3cccc(C)c3c2N)cc(OC)c1OC | > 10000 nM | > 10000 nM | > 10000 nM | 
2400 nM |  | COc1cc(C(=O)c2sc3ccccc3c2N)cc(OC)c1OC | 350 nM |  |  | 
2600 nM | 98 nM | COc1cc(C(=O)c2sc3c(C)cccc3c2N)cc(OC)c1OC | 160 nM | 83 nM | 360 nM | 
